From BindingDB's records for patent US10646492 (Incyte Corporation; Incyte Holdings Corporation, 2020) come the findings set out here.

Where only a bound is given, the exact number is not on record here.

The experiment addresses T1, Phosphatidylinositol 4,5-bisphosphate 3-kinase catalytic subunit delta isoform (Homo sapiens, UniProt O00329).
T1 sequence (O00329 whole entry): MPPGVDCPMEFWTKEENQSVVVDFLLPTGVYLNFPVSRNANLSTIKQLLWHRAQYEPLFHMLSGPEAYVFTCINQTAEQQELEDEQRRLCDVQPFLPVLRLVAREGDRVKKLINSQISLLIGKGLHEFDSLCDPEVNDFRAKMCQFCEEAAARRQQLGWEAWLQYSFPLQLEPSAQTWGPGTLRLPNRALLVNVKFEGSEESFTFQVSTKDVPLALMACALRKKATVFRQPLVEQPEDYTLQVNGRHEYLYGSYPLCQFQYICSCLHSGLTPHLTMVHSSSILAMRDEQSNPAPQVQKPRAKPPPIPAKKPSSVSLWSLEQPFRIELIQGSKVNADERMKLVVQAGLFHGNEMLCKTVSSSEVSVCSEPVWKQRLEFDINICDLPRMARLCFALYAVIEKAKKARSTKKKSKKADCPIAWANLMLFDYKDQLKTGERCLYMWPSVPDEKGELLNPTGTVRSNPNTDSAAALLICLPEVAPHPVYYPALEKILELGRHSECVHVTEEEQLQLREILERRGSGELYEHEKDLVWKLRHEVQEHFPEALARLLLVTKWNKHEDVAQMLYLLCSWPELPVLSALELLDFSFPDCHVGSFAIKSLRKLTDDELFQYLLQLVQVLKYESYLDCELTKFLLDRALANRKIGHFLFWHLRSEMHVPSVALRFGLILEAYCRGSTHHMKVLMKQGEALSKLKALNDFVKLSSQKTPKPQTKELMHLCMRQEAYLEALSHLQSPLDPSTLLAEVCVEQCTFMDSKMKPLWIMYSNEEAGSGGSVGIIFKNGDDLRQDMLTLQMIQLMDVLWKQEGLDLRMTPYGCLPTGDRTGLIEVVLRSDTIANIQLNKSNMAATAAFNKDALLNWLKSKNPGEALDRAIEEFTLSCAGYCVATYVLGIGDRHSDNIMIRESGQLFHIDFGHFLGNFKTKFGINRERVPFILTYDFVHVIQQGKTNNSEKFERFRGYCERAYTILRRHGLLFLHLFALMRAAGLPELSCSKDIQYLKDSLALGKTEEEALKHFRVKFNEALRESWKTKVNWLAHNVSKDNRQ
The experiment in a line: Scintillation Proximity Assay. The procedure: The kinase reaction was conducted in polystyrene 384-well matrix white plate from Thermo Fisher Scientific in a final volume of 25 uL. Inhibitors were first diluted serially in DMSO and added to the plate wells before the addition of other reaction components. The final concentration of DMSO in the assay was 0.5%. The PI3K assays were carried out at room temperature in 20 mM MOPS, pH 6.7, 10 mM MgCl2, 5 mM DTT and CHAPS 0.03%. Reactions were initiated by the addition of ATP, the final reaction mixture consisted of 20 uM PIP2, 20 uM ATP, 0.2 uCi [gamma-33P]ATP, 4 nM PI3Kdelta. […] 25 mM EDTA, 400 uM ATP. The final concentration of SPA beads was 1.0 mg/mL. After the plate sealing, plates were shaken overnight at room temperature and centrifuged at 1800 rpm for 10 minutes, the radioactivity of the product was determined by scintillation counting on Topcount (PerkinElmer).
On the technique in general: In a scintillation proximity assay essentially only radioactivity close to the scintillant gives light.
`CCOc1c(C(C)n2cc(C)c3c(N)ncnc32)cc(Cl)c(C#N)c1C1CN([C@@H](C)CO)C1` (stereo partly drawn) [US10646492, Example 309] showed a 50% inhibitory concentration (IC50) below 10 nM.
In turn, `COc1c(C(C)n2nc(C)c3c(N)ncnc32)cc(Cl)c(C)c1-c1ccnc(C(=O)C(C)C)c1` (stereo not drawn) [US10646492, Example 16] displayed an IC50 below 10 nM.
`COc1c([C@H](C)n2cc(C)c3c(N)ncnc32)cc(Cl)c(C#N)c1C1CN([C@@H](C)CO)C1` [US10646492, Example 362] yielded an IC50 below 10 nM.

As usually defined, the IC50 is the concentration at which inhibition is half-maximal.
